Experimental data published in ChEMBL document CHEMBL4177652, “Synthesis of 14-deoxy-11,12-didehydroandrographolide analogues as potential cytotoxic agents for cholangiocarcinoma” (Bioorg Med Chem Lett, 2017).

Experiments:
[1] = Growth inhibition of human HEK293 cells after 72 hrs by SRB assay; format: cell-based; details: read-out: ED50
[2] = test system: KB; assay: Growth inhibition of human KB cells after 72 hrs by SRB assay; format: functional; details: read-out: ED50 (the source's name)
[3] = Growth inhibition of rat ASK cells after 72 hrs by SRB assay; format: functional; details: read-out: ED50 (the source's name)
[4] = test system: A549; assay: Growth inhibition of human A549 cells after 72 hrs by SRB assay; format: functional; details: A549, 72 h, read-out: ED50 (the source's name)
[5] = test system: HuCC-A1; assay: Growth inhibition of human HuCCa1 cells after 72 hrs by SRB assay; format: functional; details: HuCC-A1, 72 h, read-out: ED50 (the source's name)
[6] = test system: P388; assay: Growth inhibition of mouse P388 cells after 72 hrs by SRB assay; format: functional; details: P388, 72 h, read-out: ED50 (the source's name)
[7] = Growth inhibition of human KKU100 cells after 72 hrs by SRB assay; format: functional; details: KKU100, 72 h, read-out: ED50 (the source's name)
[8] = Growth inhibition of human KKU-M213 cells after 72 hrs by SRB assay; format: functional; details: KKU-M213, 72 h, read-out: ED50 (the source's name)
[9] = test system: MCF7; assay: Growth inhibition of human MCF7 cells after 72 hrs by SRB assay; format: functional; details: MCF7, 72 h, read-out: ED50 (the source's name)
[10] = test system: HT-29; assay: Growth inhibition of human HT-29 cells after 72 hrs by SRB assay; format: functional; details: HT-29, 72 h, read-out: ED50 (the source's name)

Q: Which GI50 at 72 h [1] does the source give for `C=C1CC[C@@H]2[C@](C)(CO[Si](c3ccccc3)(c3ccccc3)C(C)(C)C)[C@H](O)CC[C@@]2(C)[C@@H]1/C=C/C1=CCOC1=O` here?
A: 4.4 µM

Q: What about the EC50 [2] of the same molecule?
A: 4.45 µM

Q: What about the EC50 [3] of the same molecule?
A: 7.72 µM

Q: What about the EC50 [4] of the same molecule?
A: 6.49 µM

Q: What about the EC50 [5] of the same molecule?
A: 5.53 µM

Q: What about the EC50 [6] of the same molecule?
A: 5.51 µM

Q: And the EC50 [7]?
A: 14.7 µM

Q: And the EC50 [8]?
A: 5.07 µM

Q: What about the EC50 [9] of the same molecule?
A: 4.44 µM

Q: What about the EC50 [10] of the same molecule?
A: 6.48 µM

Q: What does the source list for `C=C1CC[C@@H]2[C@](C)(COC(c3ccccc3)(c3ccccc3)c3ccccc3)[C@H](O)CC[C@@]2(C)[C@@H]1/C=C/C1=CCOC1=O`?
A: GI50 at 72 h [1]: 4.68 µM; EC50 [2]: 4.94 µM; EC50 [3]: 7.45 µM; EC50 [4]: 6.79 µM; EC50 [5]: 7.78 µM; EC50 [6]: 3.87 µM; EC50 [7]: 36.2 µM; EC50 [8]: 5.42 µM; EC50 [9]: 4.86 µM; EC50 [10]: 8.38 µM

Q: With `Cc1c2ccncc2c(C)c2c1[nH]c1ccccc12` [ELLIPTECINE] as the molecule, how does the GI50 at 72 h [1] read?
A: 2.27 µM

Q: And the EC50 [2]?
A: 2.34 µM

Q: And the EC50 [3]?
A: 2.17 µM

Q: What about the EC50 [4] of the same molecule?
A: 2.37 µM

Q: What about the EC50 [5] of the same molecule?
A: 3.46 µM

Q: And the EC50 [6]?
A: 2.12 µM

Q: What about the EC50 [7] of the same molecule?
A: 4.16 µM

Q: What about the EC50 [8] of the same molecule?
A: 4.75 µM

Q: And the EC50 [9]?
A: 1.66 µM

Q: What about the EC50 [10] of the same molecule?
A: 2.68 µM

Q: Which GI50 at 72 h [1] does the source give for `CC(C)[Si](OC[C@@]1(C)[C@H]2CC[C@@]3(CO3)[C@@H](/C=C/C3=CCOC3=O)[C@]2(C)CC[C@H]1O)(C(C)C)C(C)C` here?
A: 4.04 µM

Q: And the EC50 [2]?
A: 4.59 µM

Q: What about the EC50 [3] of the same molecule?
A: 6.6 µM

Q: And the EC50 [4]?
A: 6.58 µM

Q: And the EC50 [5]?
A: 7.35 µM

Q: And the EC50 [6]?
A: 3.86 µM

Q: What about the EC50 [7] of the same molecule?
A: 2.93 µM

Q: And the EC50 [8]?
A: 3.37 µM

Q: And the EC50 [9]?
A: 4.98 µM

Q: And the EC50 [10]?
A: 2.28 µM

Q: Which GI50 at 72 h [1] does the source give for `C=C1CC[C@@H]2[C@](C)(CO[Si](C(C)C)(C(C)C)C(C)C)[C@H](OC(C)=O)CC[C@@]2(C)[C@@H]1/C=C/C1=CCOC1=O` here?
A: 8.28 µM

Q: And the EC50 [2]?
A: 7.17 µM

Q: And the EC50 [3]?
A: 29.4 µM

Q: And the EC50 [4]?
A: 22 µM

Q: What about the EC50 [5] of the same molecule?
A: 10.2 µM

Q: And the EC50 [6]?
A: 12.1 µM

Q: What about the EC50 [7] of the same molecule?
A: 4.1 µM

Q: What about the EC50 [8] of the same molecule?
A: 12.6 µM

Q: And the EC50 [9]?
A: 7.07 µM

Q: And the EC50 [10]?
A: 17.9 µM

Q: For `C=C1CC[C@@H]2[C@](C)(COC(C)=O)[C@H](O)CC[C@@]2(C)[C@@H]1/C=C/C1=CCOC1=O`, which GI50 at 72 h [1] is on record?
A: 27.8 µM

Q: What about the EC50 [2] of the same molecule?
A: 25.7 µM

Q: And the EC50 [3]?
A: > 50 µM

Q: What about the EC50 [4] of the same molecule?
A: 32.8 µM

Q: What about the EC50 [5] of the same molecule?
A: > 50 µM

Q: What about the EC50 [6] of the same molecule?
A: 27.7 µM

Q: What about the EC50 [7] of the same molecule?
A: 40.2 µM

Q: What about the EC50 [8] of the same molecule?
A: > 50 µM

Q: And the EC50 [9]?
A: 31.1 µM

Q: And the EC50 [10]?
A: 45 µM

Q: With `CC(C)(C)[Si](OC[C@@]1(C)[C@H]2CC[C@@]3(CO3)[C@@H](/C=C/C3=CCOC3=O)[C@]2(C)CC[C@H]1O)(c1ccccc1)c1ccccc1` as the molecule, how does the GI50 at 72 h [1] read?
A: 4.97 µM

Q: And the EC50 [2]?
A: 4.02 µM

Q: And the EC50 [3]?
A: 6.81 µM

Q: What about the EC50 [4] of the same molecule?
A: 6.22 µM

Q: What about the EC50 [5] of the same molecule?
A: 6.41 µM

Q: What about the EC50 [6] of the same molecule?
A: 4.13 µM

Q: And the EC50 [7]?
A: 3.27 µM

Q: What about the EC50 [8] of the same molecule?
A: 3.08 µM

Q: What about the EC50 [9] of the same molecule?
A: 4.23 µM

Q: What about the EC50 [10] of the same molecule?
A: 4.43 µM

Q: What does the source list for `C[C@]1(CO)[C@H]2CC[C@@]3(CO3)[C@@H](/C=C/C3=CCOC3=O)[C@]2(C)CC[C@H]1O`?
A: GI50 at 72 h [1]: > 50 µM; EC50 [2]: > 50 µM; EC50 [3]: > 50 µM; EC50 [4]: > 50 µM; EC50 [5]: > 50 µM; EC50 [6]: > 50 µM; EC50 [7]: > 50 µM; EC50 [8]: > 50 µM; EC50 [9]: > 50 µM; EC50 [10]: > 50 µM

Q: For `CC(=O)O[C@@H]1CC[C@]2(C)[C@H](CC[C@@]3(CO3)[C@H]2/C=C/C2=CCOC2=O)[C@]1(C)COC(c1ccccc1)(c1ccccc1)c1ccccc1`, which GI50 at 72 h [1] is on record?
A: 5.99 µM

Q: And the EC50 [2]?
A: 5.12 µM

Q: What about the EC50 [3] of the same molecule?
A: 8.29 µM

Q: What about the EC50 [4] of the same molecule?
A: 8.16 µM

Q: And the EC50 [5]?
A: 9.74 µM

Q: What about the EC50 [6] of the same molecule?
A: 5.28 µM

Q: What about the EC50 [7] of the same molecule?
A: 14.1 µM

Q: What about the EC50 [8] of the same molecule?
A: 10.2 µM

Q: What about the EC50 [9] of the same molecule?
A: 6.84 µM

Q: What about the EC50 [10] of the same molecule?
A: 6.74 µM

Q: Which results are given for `C=C1CC[C@@H]2[C@](C)(CO[Si](C)(C)C(C)(C)C)[C@H](O)CC[C@@]2(C)[C@@H]1/C=C/C1=CCOC1=O`?
A: GI50 at 72 h [1]: 6.61 µM; EC50 [2]: 5.12 µM; EC50 [3]: 9.61 µM; EC50 [4]: 17.2 µM; EC50 [5]: 18.2 µM; EC50 [6]: 8.24 µM; EC50 [7]: 3.09 µM; EC50 [8]: 27.4 µM; EC50 [9]: 7.61 µM; EC50 [10]: 8.48 µM

Q: Which results are given for `C=C1CC[C@@H]2[C@](C)(COC(C)=O)[C@H](OC(C)=O)CC[C@@]2(C)[C@@H]1/C=C/C1=CCOC1=O`?
A: GI50 at 72 h [1]: 25 µM; EC50 [2]: 25.7 µM; EC50 [3]: 42.5 µM; EC50 [4]: 34 µM; EC50 [5]: 40.9 µM; EC50 [6]: 27.7 µM; EC50 [7]: > 50 µM; EC50 [8]: 37.3 µM; EC50 [9]: 28.8 µM; EC50 [10]: 41.9 µM

Q: With `CC(=O)OC[C@@]1(C)[C@H]2CC[C@@]3(CO3)[C@@H](/C=C/C3=CCOC3=O)[C@]2(C)CC[C@H]1O` as the molecule, how does the GI50 at 72 h [1] read?
A: 38.1 µM

Q: What about the EC50 [2] of the same molecule?
A: > 50 µM

Q: What about the EC50 [3] of the same molecule?
A: > 50 µM

Q: What about the EC50 [4] of the same molecule?
A: 46.3 µM

Q: What about the EC50 [5] of the same molecule?
A: > 50 µM

Q: What about the EC50 [6] of the same molecule?
A: 20 µM

Q: And the EC50 [7]?
A: > 50 µM

Q: What about the EC50 [8] of the same molecule?
A: 48.9 µM

Q: And the EC50 [9]?
A: 43.5 µM

Q: And the EC50 [10]?
A: 48.9 µM
